The text below walks through data of PMC5504357, “Antifungal Potential of Copper(II), Manganese(II) and Silver(I) 1,10-Phenanthroline Chelates Against Multidrug-Resistant Fungal Species Forming the Candida haemulonii Complex: Impact on the Planktonic and Biofilm Lifestyles” (Frontiers in Microbiology, 2017).

Series [1] relates to Candida duobushaemulonii. Put plainly: Planktonic growth, broth microdilution (CLSI M27-A3), MIC. The class given is cell-based. Conditions: for GM-MIC: geometric mean of three C. duobushaemulonii isolates; for MIC: planktonic, 48 h, 37°C. The method, boiled down:
(§1)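 Clinical isolates (nail, blood, urine) grown 48 h at 37°C in Sabouraud-dextrose, then tested by CLSI M27-A3 broth microdilution in RPMI 1640 over 0.0625-32 mg/L, 48 h at 37°C. MIC is the lowest concentration with no visible growth; geometric mean MIC calculated across all isolates.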
(In general: Broth dilution looks for growth in wells or tubes with falling amounts of substance.)

In series [2] the test system is Candida haemulonii var. vulnera. The series is described as above. The class given is cell-based. To be noted: for GM-MIC: geometric mean of three C. haemulonii var. vulnera isolates; for MIC: planktonic, 48 h, 37°C. The method, boiled down:
as §1

In series [3] the test system is Candida haemulonii. The series is described as above. The class given is cell-based. To be noted: for GM-MIC: geometric mean of three C. haemulonii isolates; for MIC: planktonic, 48 h, 37°C. The method, boiled down:
as §1

In series [4] the test system is C. haemulonii complex. Briefly: Planktonic growth, overall across all nine isolates. The class given is cell-based, Candida haemulonii complex. To be noted: geometric mean across all nine strains; for MIC: in μM, read-out: Overall GM-MIC. In outline: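 Pooled figure: geometric mean of MICs from all nine complex isolates. Individual MICs came from 48 h, 37°C RPMI 1640 microdilution cultures (CLSI M27-A3, 0.0625-32 mg/L), judged by eye as no growth; DMSO vehicle dilutions ran alongside.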

For series [5], the system named is A549 cells. Put plainly: Mammalian cell toxicity (MTT assay) and selectivity index. The series is classed as cell-based, Human. To be noted: MTT, 48 h incubation. The method, boiled down:
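A549 cells were exposed to compounds (0.0313–512 μg/mL) in DMEM for 48 h at 37 °C, 5% CO2. Viability was measured by MTT (3 h, dark), with formazan dissolved in DMSO and read at 450 nm. CC50 was derived, and SI calculated as A549 CC50 divided by C. haemulonii complex GM-MIC.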
In general terms: Tetrazolium assays rely on reduction of a dye to a coloured formazan, in cell work by metabolically active cells.

Series [6] can be described thus: Solubility in solvents. The series is classed as physicochemical. Conditions: solvents as named. How it is done:
{[Cu(3,6,9-tdda)(phen)2].3H2O.EtOH}n (7). Step (i): Copper(II) acetate hydrate (1.50 g; 7.51 mmol) was dissolved in ethanol (50 mL) and the solution was added to an ethanolic solution (25 mL) of 3,6,9-trioxaundecanedioic acid (3,6,9-tddaH2) (2.84 g; […]). The light-green suspension was refluxed for 1 h, and after cooling to room temperature the light-green solid, [Cu(3,6,9-tdda)].H2O, was filtered off, washed with cold ethanol and air dried. Yield: 1.88 g (82.97%). % Calculated: C: 31.84, H: 4.68. % Found: C: 32.20, H: 4.60. […] Step (ii): [Cu(3,6,9-tdda)].H2O (1.00 g; 3.31 mmol) and phen (2.39 g; 13.26 mmol) were dissolved together in ethanol (50 mL) and the resulting dark-green mixture was refluxed for 2 h. The suspension was cooled and the green solid, {[Cu(3,6,9-tdda)(phen)2]3H2O.EtOH}n(7), was filtered off, washed with cold ethanol and air dried. Yield: 1.63 g (66.09%). % Calculated: C: 54.87, H: 5.42, N: 7.53. % Found: C: 54.65, H: 5.63, N: 7.39.
[Ag2(3,6,9-tdda)(phen)4].EtOH (16). Step (i): Silver(I) acetate (3.00 g; 17.97 mmol) was dissolved in ethanol (30 mL) and the solution was added to an ethanolic solution (25 mL) of 3,6,9-trioxaundecanedioic acid (3,6,9-tddaH2) (2.84 g; 8.95 mmol) and the orange-brown suspension refluxed for 3 h. […] Green [Ag2(3,6,9-tdda)(phen)4].EtOH (16) precipitated and was filtered off, washed with cold ethanol and air dried. Yield: 0.83 g (65.10%). % Calculated: C: 57.92, H: 4.19, N: 9.32. % Found: C: 57.75, H: […], N: 9.02. IR (KBr) νmax: 3380, 3046, 2905, 1978, 1804, 1618, 1585, 1509, 1421, 1322, 1263, 1215, 1121, 1077, 1018, 932, 890, 838, 726, 621, 465, 413 cm^−1. ^1H NMR (500 MHz, DMSO-d6, 313 K, TMS) δ = 9.12(8H, s), 8.63 (8H, d), 8.08 (8H, s), 7.91 (8H, dd), 3.74 (4H, s), 3.57 (8H, dd). ^13C NMR (125 MHz, DMSO-d6, 313 K, TMS) δ = 173.41, 151.28, 143.57, 138.03, 129.24, 127.37, 124.74, 71.44, 70.42, 69.74.

On to `CCO.O=C([O-])COCCOCCOCC(=O)[O-].[Ag+].[Ag+].c1cnc2c(c1)ccc1cccnc12.c1cnc2c(c1)ccc1cccnc12.c1cnc2c(c1)ccc1cccnc12.c1cnc2c(c1)ccc1cccnc12` [compound 16, [Ag2(3,6,9-tdda)(phen)4].EtOH], for which the GM-MIC in series [1] was 1.26 mg/L; in series [2] it was 0.79 mg/L; in series [3], 1 mg/L. The minimum inhibitory concentration (MIC) – broadly, the lowest concentration found to suppress growth – in series [1] (isolate LIP Ch1) is 2 mg/L; in series [1] (isolate LIP Ch6) it was 1 mg/L; in series [1] (isolate LIP Ch8) it was 1 mg/L; in series [2] (isolate LIP Ch5), 1 mg/L; in series [2] (isolate LIP Ch9), 0.5 mg/L; in series [2] (isolate LIP Ch11) it was 1 mg/L. For the same compound, the minimum inhibitory concentration (MIC) was 1 mg/L in series [3] (isolate LIP Ch4), 1 mg/L in series [3] (isolate LIP Ch7), 1 mg/L in series [3] (isolate LIP Ch12) and 0.83 µM in series [4]. Moreover, in series [4], the “Overall GM-MIC” value is 1 mg/L. In series [5], the “A549 (CC50)” value is recorded as 2.21 mg/L. For the same compound, the Solubility entry in series [6] was “soluble in H2O, MeOH, EtOH and insoluble in ethyl acetate and acetone”.
In the case of “{[Cu(3,6,9-tdda)(phen)2].3H2O.EtOH}n [compound 7]”, the GM-MIC in series [1] stood at 2 mg/L; in series [2], 2.52 mg/L; in series [3], 3.17 mg/L. In addition, the MIC in series [1] (isolate LIP Ch1) is 2 mg/L; in series [1] (isolate LIP Ch6), 2 mg/L; in series [1] (isolate LIP Ch8) it was 2 mg/L; in series [2] (isolate LIP Ch5), 2 mg/L; in series [2] (isolate LIP Ch9), 2 mg/L; in series [2] (isolate LIP Ch11), 4 mg/L. Besides, the MIC was 4 mg/L in series [3] (isolate LIP Ch4), 4 mg/L in series [3] (isolate LIP Ch7), 2 mg/L in series [3] (isolate LIP Ch12) and 3.37 µM in series [4]. For the same compound, the “Overall GM-MIC” value in series [4] was 2.52 mg/L. Moreover, in series [5], the “A549 (CC50)” value came out at 1.06 mg/L. The Solubility result in series [6] was “soluble in H2O, MeOH, EtOH and insoluble in ethyl acetate and acetone”.
